US12077503B2, “Substituted cyclic amides and their use as herbicides” (FMC CORPORATION, priority 2015, dated 2024)

What was measured:
Assay type in all cases: in vivo
[1] = system: pigweed (Amaranthus retroflexus); test: Test A preemergence; details: Preemergence; for Plant response rating, Pigweed: 125 g ai/ha, visual injury after approximately 10 d, 0 to 100 scale where 0 is no effect and 100 is complete control; for Pigweed plant response rating (0 to 100 scale, 0 is no effect, 100 is complete control): 500 g ai/ha, visual injury approx. 10 d
[2] = system: Kochia (Kochia scoparia); test: Test A preemergence; details: for Plant response rating, Kochia: 125 g ai/ha; for Kochia plant response rating (0 to 100 scale, 0 is no effect, 100 is complete control): 500 g ai/ha, visual injury approx. 10 d
Method in brief: (§1)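 Treatment is preemergence as a directed soil spray after planting, or postemergence at the one- to two-leaf stage, with test chemical in a non-phytotoxic solvent mixture plus surfactant. Plants stay in the greenhouse about 10 d before visual injury scoring on a 0 to 100 scale versus untreated controls.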

[3] = system: ryegrass, Italian (Italian ryegrass, Lolium multiflorum); test: Test A preemergence; details: Preemergence; for Plant response rating, Ryegrass, Italian: 125 g ai/ha, visual injury after approximately 10 d, 0 to 100 scale where 0 is no effect and 100 is complete control; for Ryegrass, Italian plant response rating (0 to 100 scale, 0 is no effect, 100 is complete control): 500 g ai/ha, visual injury approx. 10 d
Method in brief: as §1

[4] = system: barnyardgrass (Echinochloa crus-galli); test: Test A preemergence; details: for Plant response rating, Barnyardgrass: 125 g ai/ha; for Barnyardgrass plant response rating (0 to 100 scale, 0 is no effect, 100 is complete control): 500 g ai/ha, visual injury approx. 10 d
Method in brief: as §1

[5] = system: ragweed (common ragweed, Ambrosia elatior); test: Test A preemergence; details: Preemergence; for Plant response rating, Ragweed: 125 g ai/ha, visual injury after approximately 10 d, 0 to 100 scale where 0 is no effect and 100 is complete control; for Ragweed plant response rating (0 to 100 scale, 0 is no effect, 100 is complete control): 500 g ai/ha, visual injury approx. 10 d
Method in brief: as §1

[6] = system: giant foxtail (Setaria faberii); test: Test A preemergence; details: for Plant response rating, Foxtail, Giant: 125 g ai/ha; for Foxtail, Giant plant response rating (0 to 100 scale, 0 is no effect, 100 is complete control): 500 g ai/ha, visual injury approx. 10 d
Method in brief: as §1

[7] = system: ducksalad (Heteranthera limosa); test: Test B flooded paddy test; details: Flood, 250 g ai/ha; 0 to 100 scale where 0 is no effect and 100 is complete control; 13 to 15 d
Method in brief: (§2)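 Response scored visually against untreated controls, 0 = no effect and 100 = complete control, 13–15 d after treatment in the greenhouse. Compounds added to paddy water held 3 cm above soil surface. Treatment given at 2-leaf stage.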

[8] = system: rice (Oryra sativa); test: Test B flooded paddy test; details: Flood, 250 g ai/ha; 0 to 100 scale where 0 is no effect and 100 is complete control; 13 to 15 d
Method in brief: as §2

[9] = system: barnyardgrass (Echinochloa crus-galli); test: Test B flooded paddy test; details: Flood, 250 g ai/ha; 0 to 100 scale where 0 is no effect and 100 is complete control; 13 to 15 d
Method in brief: as §2

[10] = system: sedge, umbrella (small-flower umbrella sedge, Cyperus difformis); test: Test B flooded paddy test; details: Flood, 250 g ai/ha; 0 to 100 scale where 0 is no effect and 100 is complete control; 13 to 15 d
Method in brief: as §2

[11] = system: corn (Zea mays); test: Test A postemergence; details: for Corn plant response rating: 125 g ai/ha, visual injury rating on 0 to 100 scale (0 no effect, 100 complete control), approx. 10 d; for Plant response rating, Corn: 500 g ai/ha
Method in brief: as §1

[12] = system: pigweed (Amaranthus retroflexus); test: Test A postemergence; details: for Pigweed plant response rating: 125 g ai/ha, postemergence, visual injury rating on 0 to 100 scale (0 no effect, 100 complete control), approx. 10 d; for Plant response rating, Pigweed: Postemergence, 500 g ai/ha, 0 to 100 scale where 0 is no effect and 100 is complete control
Method in brief: as §1

[13] = system: Galium (catchweed bedstraw, Galium aparine); test: Test A postemergence; details: for Galium plant response rating: 125 g ai/ha, postemergence, visual injury rating on 0 to 100 scale (0 no effect, 100 complete control), approx. 10 d; for Plant response rating, Galium: Postemergence, 500 g ai/ha, 0 to 100 scale where 0 is no effect and 100 is complete control
Method in brief: as §1

[14] = system: wheat (Triticum aestivum); test: Test A postemergence; details: for Wheat plant response rating: 125 g ai/ha, postemergence, visual injury rating on 0 to 100 scale (0 no effect, 100 complete control), approx. 10 d; for Plant response rating, Wheat: Postemergence, 500 g ai/ha, 0 to 100 scale where 0 is no effect and 100 is complete control
Method in brief: as §1

[15] = system: Kochia (Kochia scoparia); test: Test A postemergence; details: for Kochia plant response rating: 125 g ai/ha, postemergence, visual injury rating on 0 to 100 scale (0 no effect, 100 complete control), approx. 10 d; for Plant response rating, Kochia: Postemergence, 500 g ai/ha, 0 to 100 scale where 0 is no effect and 100 is complete control
Method in brief: as §1

[16] = system: ryegrass, Italian (Italian ryegrass, Lolium multiflorum); test: Test A postemergence; details: for Ryegrass, Italian plant response rating: 125 g ai/ha, postemergence, visual injury rating on 0 to 100 scale (0 no effect, 100 complete control), approx. 10 d; for Plant response rating, Ryegrass, Italian: Postemergence, 500 g ai/ha, 0 to 100 scale where 0 is no effect and 100 is complete control
Method in brief: as §1

[17] = system: barnyardgrass (Echinochloa crus-galli); test: Test A postemergence; details: for Barnyardgrass plant response rating: 125 g ai/ha, visual injury rating on 0 to 100 scale (0 no effect, 100 complete control), approx. 10 d; for Plant response rating, Barnyardgrass: 500 g ai/ha
Method in brief: as §1

[18] = system: ragweed (common ragweed, Ambrosia elatior); test: Test A postemergence; details: for Ragweed plant response rating: 125 g ai/ha, postemergence, visual injury rating on 0 to 100 scale (0 no effect, 100 complete control), approx. 10 d; for Plant response rating, Ragweed: Postemergence, 500 g ai/ha, 0 to 100 scale where 0 is no effect and 100 is complete control
Method in brief: as §1

[19] = system: giant foxtail (Setaria faberii); test: Test A postemergence; details: for Foxtail, Giant plant response rating: 125 g ai/ha, postemergence, visual injury rating on 0 to 100 scale (0 no effect, 100 complete control), approx. 10 d; for Plant response rating, Foxtail, Giant: Postemergence, 500 g ai/ha, 0 to 100 scale where 0 is no effect and 100 is complete control
Method in brief: as §1

[20] = system: blackgrass (Alopecurus myosuroides); test: Test A postemergence; details: for Blackgrass plant response rating: 125 g ai/ha, visual injury rating on 0 to 100 scale (0 no effect, 100 complete control), approx. 10 d; for Plant response rating, Blackgrass: 500 g ai/ha
Method in brief: as §1

[21] = preemergence, 0 to 100 scale (0 no effect, 100 complete control)
[22] = postemergence, 0 to 100 scale, 0 no effect, 100 complete control
[23] = Preemergence, visual injury after approximately 10 d, 0 to 100 scale where 0 is no effect and 100 is complete control
[24] = Postemergence, 0 to 100 scale where 0 is no effect and 100 is complete control

SMILES	Plant response rating, Pigweed [1]	Pigweed plant response rating (0 to 100 scale, 0 is no effect, 100 is complete control) [1]	Kochia plant response rating (0 to 100 scale, 0 is no effect, 100 is complete control) ([2]; Preemergence)	Plant response rating, Ryegrass, Italian [3]	Ryegrass, Italian plant response rating (0 to 100 scale, 0 is no effect, 100 is complete control) [3]	Barnyardgrass plant response rating (0 to 100 scale, 0 is no effect, 100 is complete control) ([4]; Preemergence)	Plant response rating, Ragweed [5]	Ragweed plant response rating (0 to 100 scale, 0 is no effect, 100 is complete control) [5]	Foxtail, Giant plant response rating (0 to 100 scale, 0 is no effect, 100 is complete control) ([6]; Preemergence)	Plant response rating, Ducksalad [7]	Plant response rating, Rice [8]	Plant response rating, Barnyardgrass [9]	Plant response rating, Sedge, Umbrella [10]	Corn plant response rating ([11]; postemergence)	Pigweed plant response rating [12]	Plant response rating, Pigweed [12]	Galium plant response rating [13]	Plant response rating, Galium [13]	Wheat plant response rating [14]	Plant response rating, Wheat [14]	other results
CN1CC(c2ccc(C(F)(F)F)cc2F)C(C(=O)Nc2ccccc2S(C)(=O)=O)C1=O (stereo not drawn) [Compound 473]	80	90	80	0	90	100	20	70	100	75	20	40	0	0	50	90	60	60	0	40	Plant response rating, Kochia [2, 21]: 80; Plant response rating, Barnyardgrass [4, 21]: 80; Plant response rating, Foxtail, Giant [6, 21]: 90; Plant response rating, Corn [11, 22]: 40; Kochia plant response rating [15]: 40; Plant response rating, Kochia [15]: 80; Ryegrass, Italian plant response rating [16]: 0; Plant response rating, Ryegrass, Italian [16]: 40; Barnyardgrass plant response rating ([17]; postemergence): 90; Plant response rating, Barnyardgrass [17, 22]: 90; Ragweed plant response rating [18]: 50; Plant response rating, Ragweed [18]: 50; Foxtail, Giant plant response rating [19]: 70; Plant response rating, Foxtail, Giant [19]: 90; Blackgrass plant response rating ([20]; postemergence): 40; Plant response rating, Blackgrass [20, 22]: 60
CC(C)=CCN1CC(c2cccc(C(F)(F)F)c2)C(C(=O)Nc2cccc(F)c2F)C1=O (stereo not drawn) [Compound 477]	0	0	0	0	0	90	0	0	90	0	0	0	0	0	0	0	0	0	0	40	Plant response rating, Kochia [2, 21]: 0; Plant response rating, Barnyardgrass [4, 21]: 20; Plant response rating, Foxtail, Giant [6, 21]: 90; Plant response rating, Corn [11, 22]: 40; Kochia plant response rating [15]: 0; Plant response rating, Kochia [15]: 0; Ryegrass, Italian plant response rating [16]: 0; Plant response rating, Ryegrass, Italian [16]: 0; Barnyardgrass plant response rating ([17]; postemergence): 40; Plant response rating, Barnyardgrass [17, 22]: 70; Ragweed plant response rating [18]: 0; Plant response rating, Ragweed [18]: 0; Foxtail, Giant plant response rating [19]: 40; Plant response rating, Foxtail, Giant [19]: 70; Blackgrass plant response rating ([20]; postemergence): 0; Plant response rating, Blackgrass [20, 22]: 30
O=C(Nc1cccc(F)c1F)C1C(=O)N(CC=CCl)CC1c1cccc(C(F)(F)F)c1 (stereo not drawn) [Compound 485]	0	0	0	0	0	80	0	0	90	40	0	0	0	0	0	40	0	30	0	20	Plant response rating, Kochia [2, 23]: 0; Plant response rating, Barnyardgrass [4, 23]: 30; Plant response rating, Foxtail, Giant [6, 23]: 70; Plant response rating, Corn [11, 24]: 20; Kochia plant response rating [15]: 0; Plant response rating, Kochia [15]: 30; Ryegrass, Italian plant response rating [16]: 0; Plant response rating, Ryegrass, Italian [16]: 0; Barnyardgrass plant response rating ([17]; postemergence): 20; Plant response rating, Barnyardgrass [17, 24]: 50; Ragweed plant response rating [18]: 0; Plant response rating, Ragweed [18]: 0; Foxtail, Giant plant response rating [19]: 20; Plant response rating, Foxtail, Giant [19]: 70; Blackgrass plant response rating ([20]; postemergence): 0; Plant response rating, Blackgrass [20, 24]: 0
O=C1NCC(c2cc(F)cc(Cl)c2)C1C(=O)Nc1ccc(F)cc1F (stereo not drawn) [Compound 493]	0	0	20	0	20	90	0	30	90	80	25	60	0	0	0	0	30	40	0	30	Plant response rating, Kochia [2, 23]: 0; Plant response rating, Barnyardgrass [4, 23]: 90; Plant response rating, Foxtail, Giant [6, 23]: 90; Plant response rating, Corn [11, 24]: 70; Kochia plant response rating [15]: 0; Plant response rating, Kochia [15]: 20; Ryegrass, Italian plant response rating [16]: 20; Plant response rating, Ryegrass, Italian [16]: 50; Barnyardgrass plant response rating ([17]; postemergence): 90; Plant response rating, Barnyardgrass [17, 24]: 90; Ragweed plant response rating [18]: 20; Plant response rating, Ragweed [18]: 20; Foxtail, Giant plant response rating [19]: 90; Plant response rating, Foxtail, Giant [19]: 90; Blackgrass plant response rating ([20]; postemergence): 20; Plant response rating, Blackgrass [20, 24]: 50
